ChEMBL document CHEMBL5728361, “(S)-2-(1-cyclopropylethyl)-5-(4-methyl-2-((6-(2-oxopyrrolidin-1-yl)pyridin-2-yl)amino) thiazol-5-yl)-7-(methylsulfonyl)isoindolin-1-one as a phosphatidylinositol 3-kinase inhibitor” (2021)

How the values were obtained:
[1] = biological target: T1, Phosphatidylinositol 4,5-bisphosphate 3-kinase catalytic subunit delta isoform (Homo sapiens, UniProt O00329); test: (§1) Enzymatic Activity Assay : The activity of recombinant human PI3Kγ ((aa144-1102)-6His) and PI3Kα, β, δ (6-His(p110-p85α)) was determined by measuring the ADP level after phosphorylation of DiC8-PIP2 using a commercially available ADP-Glo™ kit from Promega. The assay was carried out in white low volume 384 well plates in a final volume of 14 μl at R.T. The assay conditions contained the following: 50 mM Tris buffer pH 7.4, 2.1 mM DTT, 3 mM MgCl2, 0.05% CHAPS, 20 μM ATP, 80 μM DiC8-PIP2 and 1.2 nM PI3Kα, β, γ or 0.6 nM PI3Kδ. Potential inhibitors were made up in DMSO and then diluted in the assay to give a final concentration of not exceeding 1% (v/v) DMSO. […] Routinely, inhibitors were pre-incubated with 3 μl of enzyme for 15 min prior to the addition of 2 μl substrate mixture for a further 60 min enzyme reaction. The phosphorylation was stopped with the addition of 3 μl ADP-Glo™ reagent (stop solution) followed by a 40 min incubation. Prior to detection 6 μl of ADP-Glo™ Kinase Detection Reagent was added and the plates were read in a micro plate reader using a Luminescence filter. All additions were followed by a short centrifugation step.
T1 sequence (O00329 whole entry): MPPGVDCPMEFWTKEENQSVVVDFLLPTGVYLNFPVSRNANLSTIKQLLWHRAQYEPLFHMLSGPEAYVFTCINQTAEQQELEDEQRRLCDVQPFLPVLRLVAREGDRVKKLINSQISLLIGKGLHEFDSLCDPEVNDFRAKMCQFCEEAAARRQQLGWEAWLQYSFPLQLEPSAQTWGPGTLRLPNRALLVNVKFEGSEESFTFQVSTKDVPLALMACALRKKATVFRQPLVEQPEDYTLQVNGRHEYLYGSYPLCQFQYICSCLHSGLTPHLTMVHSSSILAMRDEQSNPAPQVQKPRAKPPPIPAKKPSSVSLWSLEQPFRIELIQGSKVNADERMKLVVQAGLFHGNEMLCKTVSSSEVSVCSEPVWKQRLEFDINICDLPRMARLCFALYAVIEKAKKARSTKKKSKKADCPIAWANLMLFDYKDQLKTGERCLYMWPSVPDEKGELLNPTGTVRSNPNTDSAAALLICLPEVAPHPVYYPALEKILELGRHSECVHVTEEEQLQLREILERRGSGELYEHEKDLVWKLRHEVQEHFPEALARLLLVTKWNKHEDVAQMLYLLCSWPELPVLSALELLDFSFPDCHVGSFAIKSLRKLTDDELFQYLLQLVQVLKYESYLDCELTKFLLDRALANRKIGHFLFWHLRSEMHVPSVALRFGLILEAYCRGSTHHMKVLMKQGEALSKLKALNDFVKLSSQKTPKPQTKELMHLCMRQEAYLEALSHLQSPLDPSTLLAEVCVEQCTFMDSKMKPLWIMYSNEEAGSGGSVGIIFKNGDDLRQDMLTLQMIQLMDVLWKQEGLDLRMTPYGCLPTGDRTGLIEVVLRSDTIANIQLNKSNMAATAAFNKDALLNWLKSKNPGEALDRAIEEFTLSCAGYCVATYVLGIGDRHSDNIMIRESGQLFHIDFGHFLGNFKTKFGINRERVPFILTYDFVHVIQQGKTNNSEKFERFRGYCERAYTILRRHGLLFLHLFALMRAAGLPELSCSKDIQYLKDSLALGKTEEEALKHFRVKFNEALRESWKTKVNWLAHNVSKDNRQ

[2] = biological target: Phosphatidylinositol 4,5-bisphosphate 3-kinase catalytic subunit alpha isoform (Homo sapiens, UniProt P42336); test: as §1
[3] = biological target: Phosphatidylinositol 4,5-bisphosphate 3-kinase catalytic subunit beta isoform (Homo sapiens, UniProt P42338); test: as §1
[4] = as §1

Chain of Phosphatidylinositol 4,5-bisphosphate 3-kinase catalytic subunit alpha isoform (P42336 whole entry, canonical isoform): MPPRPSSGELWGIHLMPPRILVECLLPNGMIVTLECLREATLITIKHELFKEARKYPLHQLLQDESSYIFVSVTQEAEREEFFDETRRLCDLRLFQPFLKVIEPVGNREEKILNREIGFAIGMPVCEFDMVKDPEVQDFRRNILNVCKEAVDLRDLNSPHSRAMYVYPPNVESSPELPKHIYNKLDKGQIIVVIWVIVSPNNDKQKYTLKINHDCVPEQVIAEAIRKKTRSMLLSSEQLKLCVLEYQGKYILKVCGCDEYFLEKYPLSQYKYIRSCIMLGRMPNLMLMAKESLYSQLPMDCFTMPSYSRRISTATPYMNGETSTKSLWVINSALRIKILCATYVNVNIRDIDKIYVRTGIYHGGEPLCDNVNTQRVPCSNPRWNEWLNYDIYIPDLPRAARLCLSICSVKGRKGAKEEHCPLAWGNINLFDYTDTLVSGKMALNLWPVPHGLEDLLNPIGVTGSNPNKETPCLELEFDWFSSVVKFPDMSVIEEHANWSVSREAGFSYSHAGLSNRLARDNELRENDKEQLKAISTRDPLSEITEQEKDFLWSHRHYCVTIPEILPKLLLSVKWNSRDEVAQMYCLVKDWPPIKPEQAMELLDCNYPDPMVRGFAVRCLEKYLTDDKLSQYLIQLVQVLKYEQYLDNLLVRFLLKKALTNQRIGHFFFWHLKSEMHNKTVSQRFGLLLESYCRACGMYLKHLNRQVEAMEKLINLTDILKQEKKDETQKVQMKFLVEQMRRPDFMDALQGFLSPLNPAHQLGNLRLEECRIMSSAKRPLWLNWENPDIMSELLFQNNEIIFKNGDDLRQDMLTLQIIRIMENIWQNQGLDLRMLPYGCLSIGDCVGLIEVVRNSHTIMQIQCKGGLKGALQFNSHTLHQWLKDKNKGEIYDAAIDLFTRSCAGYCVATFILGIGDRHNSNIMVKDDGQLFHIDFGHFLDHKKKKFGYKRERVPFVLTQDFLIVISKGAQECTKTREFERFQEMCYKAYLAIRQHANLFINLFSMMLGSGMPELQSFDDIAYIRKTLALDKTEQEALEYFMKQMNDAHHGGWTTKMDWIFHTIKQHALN
Chain of Phosphatidylinositol 4,5-bisphosphate 3-kinase catalytic subunit beta isoform (P42338 whole entry, canonical isoform): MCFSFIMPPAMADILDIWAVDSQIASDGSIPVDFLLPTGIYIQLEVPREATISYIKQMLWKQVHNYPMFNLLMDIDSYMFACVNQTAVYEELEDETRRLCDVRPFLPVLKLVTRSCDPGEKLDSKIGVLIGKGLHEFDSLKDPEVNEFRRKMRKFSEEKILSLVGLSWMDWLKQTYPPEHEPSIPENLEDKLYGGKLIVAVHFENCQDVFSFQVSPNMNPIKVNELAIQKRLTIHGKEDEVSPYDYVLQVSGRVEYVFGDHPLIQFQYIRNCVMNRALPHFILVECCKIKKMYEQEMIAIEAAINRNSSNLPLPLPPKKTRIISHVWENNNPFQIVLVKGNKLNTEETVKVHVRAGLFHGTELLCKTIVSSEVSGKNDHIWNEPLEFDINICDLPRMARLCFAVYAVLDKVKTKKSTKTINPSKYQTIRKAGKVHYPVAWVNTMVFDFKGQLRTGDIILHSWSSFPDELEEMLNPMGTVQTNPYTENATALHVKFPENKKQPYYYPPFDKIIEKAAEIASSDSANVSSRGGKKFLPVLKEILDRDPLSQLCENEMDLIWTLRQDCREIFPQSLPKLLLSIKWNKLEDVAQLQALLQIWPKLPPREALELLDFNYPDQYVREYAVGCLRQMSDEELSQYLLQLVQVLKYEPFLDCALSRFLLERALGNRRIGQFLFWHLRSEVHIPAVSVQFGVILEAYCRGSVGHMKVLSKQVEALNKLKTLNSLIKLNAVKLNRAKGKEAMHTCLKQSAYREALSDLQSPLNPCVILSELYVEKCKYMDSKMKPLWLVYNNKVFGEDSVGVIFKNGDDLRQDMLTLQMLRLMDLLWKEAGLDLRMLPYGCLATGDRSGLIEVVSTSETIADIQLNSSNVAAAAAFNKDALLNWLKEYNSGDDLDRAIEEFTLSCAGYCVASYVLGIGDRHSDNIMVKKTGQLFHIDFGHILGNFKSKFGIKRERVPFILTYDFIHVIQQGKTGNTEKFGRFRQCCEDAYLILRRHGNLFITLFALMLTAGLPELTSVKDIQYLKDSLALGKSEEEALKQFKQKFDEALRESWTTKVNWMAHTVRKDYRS

Compound | IC50 [1] [nM] | IC50 [2] [nM] | IC50 [3] [nM] | IC50 [4] [nM]
CC[C@H](C)N1Cc2cc(-c3sc(Nc4cccc(N5CCCOC5=O)n4)nc3C)cc(S(=O)(=O)NC)c2C1=O | 2.2 | 80 | 459 | 
Cc1nc(Nc2cccc(N3CCCC3=O)c2)sc1-c1cc2c(c(S(C)(=O)=O)c1)C(=O)N([C@@H](C)C1CC1)C2 |  |  |  | 0.9
